# Results taken from US20240425508A1, “COMPOUNDS USEFUL IN PREVENTION AND/OR TREATMENT OF SENESCENT CELL-RELATED PATHOLOGIES AND DISEASES” (ISTITUTI CLINICI SCIENTIFICI MAUGERI SPA SB, priority 2022, published 2024).
# Where two headings read alike, the source gives them in different places.
# Columns and labels:
# [1] = tested on: IMR90 cells; assay: DAPI staining assay of surviving cells in replicative senescence model; conditions: DAPI signal, 0.5 μM, 48 h, FIG. 2B
# Experimental: Following treatment, the cells were seeded in 96mw. The adherent cells were then fixed with 70% ethanol, incubated for 30 min with a 3 μM DAPI solution; the fluorimetric signal was measured using a multiplate reader (Victor Nivo-Perkin Elmer) set to 350/460 nm (Ligasová A, Koberna K. Quantification of fixed adherent cells using a strong enhancer of the fluorescence of DNA dyes. Sci Rep. 2019 Jun. 18; 9(1):8701. doi: 10.1038/s41598-019-45217-9. PMID: 31213648; PMCID: PMC6581942.).
# To confirm data obtained by traditional cell counting by a single operator, a quantification method based on […] was also implemented, exploiting the ability of the DAPI to mark cell nuclei. The cells that survived the action of senolytics were fixed and incubated with the fluorescent indicator. The specific signal was measured using the microplate multimode reader, Victor NIVO (PerkinElmer Tech. GmbH, Germany).
# [2] = dogs; cited from earlier work
# [3] = rats; cited from earlier work
# [4] = tested on: primary human fetal lung cells IMR90; type: cell-based
# Source text: Cell culture and replicative senescence. Fetal pulmonary fibroblasts, IMR90, were provided by the European Collection of Authenticated Cell Culture (ECACC) and grown in a complete medium consisting of Minimum Essential Medium (MEM), 10% Fetal Bovine Serum (FBS), 1% penicillin-streptomycin (antibiotic), 1% L-glutamine. Cells with passages from P15 to P21 were used; cells were considered incrementally senescent from passage P19 to passage P21. […] The cells were fixed in paraformaldehyde 2% and incubated with the substrate, X-gal, in a solution at pH 6, at 37° C., overnight (16 h).
# The images were acquired using an optical microscope (Leica) with 5× magnification. The images were analyzed using the ImageJ software, quantifying the colorimetric signal emitted by each cell. The mean signal intensity was then normalized for the total number of cells. Survival curves of the compounds. […] The cells were then counted manually, in triplicate, using disposable burker chambers.
# 13 compounds including K5, with different structures, were assayed using an in vitro senescence model, that was developed utilizing serial passages of primary human fetal lung cells IMR90. […] Senescence was detected using the “Senescence β-Galactosidase Staining Kit” (#9860S, Cell Signaling Technology, Inc., MA, USA). […]
# [5] = Crossing of the blood-brain barrier after administration; conditions: in vivo
# [6] = target: T1, recombinant HSP90α (Homo sapiens, UniProt P07900); assay: HSP90 inhibition activity assay, FITC-geldanamycin competitive binding fluorescence polarization; conditions: 1 pM-10 μM, 2 h, FITC-labeled geldanamycin
# T1 construct: purchased BPS Bioscience 50293
# Experimental: HSP90 inhibition activity assay. […] Briefly, the compounds were diluted at different concentrations between 1 pM to 10 μM and incubated for 2 h with the enzyme and substrate at RT while stirring.
IC50 [6] [nM],Compound,cytotoxic effects in the cellular model IMR90 [1],maximum tolerated dose (MTD) [2] [mg/m^2],maximum tolerated dose (MTD) [3] [mg/m^2],"reduction of the senescent population ([4]; IMR90 P19-P21, first 48 hours of exposure, FIG. 2A (1 μM))","senolytic action on cells at passages between P19 and P21 ([4]; IMR90 P19-P21 vs P15-P17, 1 μM, 48 h)",crossing of the blood-brain barrier (BBB) [5]
–,"CO[C@H]1/C=C\C=C(/C)C(=O)NC2=CC(=O)C(NCCN(C)C)=C(C[C@@H](C)C[C@H](OC)[C@H](O)[C@@H](C)/C=C(\C)[C@@H]1OC(N)=O)C2=O [Compound 17-DMAG, 17-dimethylaminoethylamino-17-demethoxygeldanamycin]",cytotoxic effects already at low concentrations and also in early passages,8,12,–,–,–
731,"Cc1ccccc1-n1c(=O)n(Cc2ccccc2)c(=O)c2[nH]cnc21 [Compound Ia, 1-benzyl-3-(2-methylphenyl)-2,3,6,7-tetrahydro-1H-purine-2,6-dione]",–,–,–,about 50%,act selectively and significantly,enables the crossing of the blood-brain barrier
–,CC(C)c1cc(-c2n[nH]c(=O)n2-c2ccc3c(ccn3C)c2)c(O)cc1O [Ganetespib],cytotoxic effects already at low concentrations and also in early passages,–,–,–,–,–
